# From patent US10717704B2, “Inhibitors of creatine transport and uses thereof” (Rgenix, Inc., priority 2014, dated 2020)
# pKi: −log10 of the molar value.
# Legend:
# creatine transporter = molecular target: T1, creatine transporter (Mus musculus, UniProt Q8VBW1); assay: In vivo creatine transporter inhibition assay (creatine-d3 transport in heart tissue); parameters: species or system C57Bl6 male mice; details: i.p. 250 mg/kg β-GPA equivalent (1.91 mmol/kg), creatine-d3 1 mg/kg i.p. 7 minutes after drug, hearts after one hour, relative to vehicle control, mean of three hearts
# T1 construct: from tissue; host or cells: heart of C57Bl6 male mice (in vivo dosing)
# T1 sequence (Q8VBW1 1-635): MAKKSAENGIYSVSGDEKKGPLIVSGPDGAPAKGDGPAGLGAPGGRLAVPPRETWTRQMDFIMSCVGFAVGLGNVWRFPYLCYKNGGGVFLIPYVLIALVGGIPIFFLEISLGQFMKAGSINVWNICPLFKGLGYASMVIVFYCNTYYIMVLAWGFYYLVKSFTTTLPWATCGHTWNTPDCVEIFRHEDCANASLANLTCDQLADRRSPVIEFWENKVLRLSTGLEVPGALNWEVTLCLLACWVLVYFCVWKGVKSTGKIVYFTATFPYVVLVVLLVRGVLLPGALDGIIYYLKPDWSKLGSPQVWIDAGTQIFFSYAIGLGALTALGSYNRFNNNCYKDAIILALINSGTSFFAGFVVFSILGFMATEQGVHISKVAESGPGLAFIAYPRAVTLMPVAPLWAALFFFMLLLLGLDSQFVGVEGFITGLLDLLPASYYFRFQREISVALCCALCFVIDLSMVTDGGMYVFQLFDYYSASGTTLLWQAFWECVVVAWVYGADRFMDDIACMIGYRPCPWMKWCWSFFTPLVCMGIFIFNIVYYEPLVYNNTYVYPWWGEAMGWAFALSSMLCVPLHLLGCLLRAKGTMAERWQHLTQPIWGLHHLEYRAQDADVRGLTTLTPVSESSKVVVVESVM
# Description: Soluble compounds were formulated in saline solution (0.9% NaCl). […] Studies were performed on 6-7 week old C57Bl6 male mice, receiving a regular diet (Purina 5001, Research Diet) and on a regular sleep rhythm (12 h night/day schedule). Experiments were performed ˜6 h after exposing to daylight. Mice were weighed and randomly divided into groups of 3 mice per group and injected i.p. with 100-200 μL of dosing solution to deliver 250 mg/kg (50 mg/mL or 381 mM) β-GPA equivalent (i.e. 1.91 mmol/kg) along with a vehicle control. […] Volumes were adjusted based on the weight of the mice to reach a final dose of 1 mg/kg. After one hour, mice were euthanized, hearts were perfused with PBS, removed, snap-frozen in liquid nitrogen, and stored at −80° C. until further processing. Mouse hearts were thawed and weighed into 1.5 mL Eppendorf conical tubes. Typical heart weights range from […]. […] The samples were then placed in a MiniBeadBeater (BioSpec Products, Inc.) for 2 minutes to disrupt the tissue and homogenize the sample. Aliqouts (20 μL) of the homogenized hearts were transferred to a 96-well microtiter plate. […] Supernatant (900 μL) was transferred to 96-well deep well plate for analysis. Calibration standards, blanks, and quality control samples are prepared from control mouse hearts homogenized as noted above. Aliquots of homogenate were then spiked with known quantities of creatine-d3 (CDN Isotopes, Pointe-Claire, Quebec) or solvent, and processed along with the samples as noted above. Analysis was conducted by LC-MS/MS using an Acquity UPLC (Waters Corp., Milford, Mass.)/Triple Quad 5500 (AB Sciex, Framingham, Mass.) system. […] A binary gradient of acetonitrile and 10 mM ammonium acetate was used to elute analytes from the column. The mass spectrometer was operated in positive ion electrospray in Multiple Reaction Monitoring mode for the following mass transitions: Data were collected and processed using Analyst 1.6.2 (AB Sciex, Framingham, Mass.). […] Data was report as μg of creatine-d3 per gram of heart. Mean values and standard deviations were calculated from three heart samples and percent creatine-d3 transport inhibition was reported relative to vehicle control.
# [1] = test system: LvM3b cells with CKB knockdown; assay: Liver metastasis of CKB knockdown LvM3b cells pre-treated with metabolite; assay type: in vivo, mice
# Description: (§1) 5×10^5 highly metastatic cancer cells were injected into the portal circulation of immunodeficient mice. One day after inoculation of cancer cells, mice were injected indicated amounts of drug in 300 μL PBS. Treatment was continued daily and metastatic progression was monitored by bioluminescent imaging until the mice were euthanized at which point livers were excised for bioluminescent imaging and gross histology. Where indicated, cancer cells were pre-treated with indicated amounts of compound for 48 hrs before injection into immunodeficient mice.
# CKB is known to regulate the reservoir of rapidly mobilized high-energy phosphates in tissues such as the brain and kidneys by catalyzing the transfer of a high-energy phosphate group from phosphocreatine to ADP, yielding ATP and creatine. It was hypothesized that CKB generation of ATP from phosphocreatine might provide colon cancer cells with an energetic advantage during hepatic colonization. […] Metastatic burden was monitored by bioluminescent imaging and mice euthanized 21 days after injection.
# Similar studies were done to determine whether creatine and phosphocreatine could rescue the phenotype of seen upon CKB knock-down. […] Liver metastasis was monitored by bioluminescent imaging and mice were euthanized as described above.
# LvM3b cells = assay: Liver metastasis assay, LvM3b colon cancer cells, drug treatment of mice; assay type: in vivo, NOD-SCID mice; details: for metastatic colonization (bioluminescent measurements of liver metastasis): 5×10^5 LvM3b cells, treated daily for two weeks, intra-peritoneal
# Description: One day after inoculation of cancer cells, mice were injected indicated amounts of drug in 300 μL PBS. Treatment was continued daily and metastatic progression was monitored by bioluminescent imaging until the mice were euthanized at which point livers were excised for bioluminescent imaging and gross histology. Where indicated, cancer cells were pre-treated with indicated amounts of compound for 48 hrs before injection into immunodeficient mice. […] The treatment regime started one day after inoculation of tumor cells and continued until the mice were euthanized. […] Treatment regime were as that for cyclocreatine treatment. Finally, assays were carried out to determine the impact of small-molecule inhibition of CKB and restriction of creatine availability on colon cancer metastasis. Cyclocreatine, which resembles phosphocreatine, is a transition-state analog for creatine kinases. […] The mice were then euthanized and livers excised for ex vivo imaging at the end of the treatment. […] Similar assays were carried out using a creatine transporter inhibitor beta-guanidinopropionic acid (β-GPA). […] In this example, assays were carried out to confirm the therapeutic potential of targeting the creatine transporter channel SLC6a8 by administering the small molecule β-GPA, which is an inhibitor of SLC6a8. […] To confirm this therapeutic effect, mice injected with LvM3b colon cancer cells we treated with either β-GPA or control vehicle (PBS) via intra-peritoneal injection daily for three weeks (FIG. 2). The mice were euthanized at three weeks and liver extracted for bioluminescent imaging and gross histology.
# CKB = CKB (Homo sapiens, UniProt P12277); details: read-out: ki (inhibitor of CKB); cited from earlier work
# [2] = test system: PANC1 pancreatic cancer cells; assay: Survival of disseminated PANC1 cells in vivo after β-GPA pre-treatment; parameters: species or system immunodeficient mice
# Description: as §1, with “One” for “5×10^5 highly metastatic cancer cells were injected into the portal circulation of immunodeficient mice. One”
# Chain of CKB (P12277 whole entry): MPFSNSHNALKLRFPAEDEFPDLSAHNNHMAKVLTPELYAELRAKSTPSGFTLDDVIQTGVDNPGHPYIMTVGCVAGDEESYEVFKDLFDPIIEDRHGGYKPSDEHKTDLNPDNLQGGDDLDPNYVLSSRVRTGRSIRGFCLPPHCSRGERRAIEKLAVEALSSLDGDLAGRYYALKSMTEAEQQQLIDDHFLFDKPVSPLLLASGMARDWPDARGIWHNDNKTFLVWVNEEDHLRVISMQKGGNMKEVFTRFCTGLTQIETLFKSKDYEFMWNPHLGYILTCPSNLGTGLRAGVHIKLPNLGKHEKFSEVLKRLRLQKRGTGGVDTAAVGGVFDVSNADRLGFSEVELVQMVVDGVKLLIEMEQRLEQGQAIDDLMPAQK
structure (smiles),measurement,setting,value
N=C(N)NCCC(=O)O [28 (β-GPA)],inhibition at 250 mg/kg,"creatine transporter; mouse, ip",73.4%
Nc1ncnc2c1ncn2[C@@H]1O[C@H](COP(=O)(O)OP(=O)(O)OP(=O)(O)O)[C@@H](O)[C@H]1O [ATP],enhancement of suppressed metastasis phenotype in cells depleted of CKB,"[1]; LvM3b with CKB knockdown pre-treated with 100 uM ATP, 21 days",more than 10 folds
"N=C(N)NC[C@H](N)C(=O)O [Compound 125, (2S)-2-amino-3-carbamimidamidopropanoic acid]",% Inhibition of Creatine-d3 Transport,creatine transporter,4.5%
"C[C@H](CC(=O)O)NC(=N)N [Compound 219, (3R)-3-carbamimidamidobutanoic acid]",% Inhibition of Creatine-d3 Transport,creatine transporter,79.0%
"C[C@@H](CC(=O)O)NC(=N)N [Compound 220, (3S)-3-carbamimidamidobutanoic acid]",% Inhibition of Creatine-d3 Transport,creatine transporter,1.4%
"N=C(N)N1CC(C(=O)O)C1 [Compound 258, 1-carbamimidoylazetidine-3-carboxylic acid]",% Inhibition of Creatine-d3 Transport,creatine transporter,71.8%
"N=C(N)NC(CC(=O)O)C(F)(F)F (centres unmarked) [Compound 261, 3-guanidino-4,4,4-trifluorobutanoic acid]",% Inhibition of Creatine-d3 Transport,creatine transporter,24.7%
"CCC(CC(=O)O)NC(=N)N (centres unmarked) [Compound 358, 3-carbamimidamidopentanoic acid]",% Inhibition of Creatine-d3 Transport,creatine transporter,11.1%
"N=C(N)N1CCC(C(=O)O)C1 (centres unmarked) [Compound 376, 1-carbamimidoylpyrrolidine-3-carboxylic acid]",% Inhibition of Creatine-d3 Transport,creatine transporter,39.1%
CN(CC(=O)O)C(=N)N [creatine],rescue of metastasis suppression upon CKB knockdown,"[1]; LvM3b cells with CKB knockdown pre-treated with 10 uM, day 21",rescued metastasis suppression
NC1=NCCN1CC(=O)O [cyclocreatine],metastatic colonization (bioluminescent measurements of liver metastasis),LvM3b cells,significantly reduced metastatic colonization
same,pKi,CKB,2.30
"N=C(N)NCCC(=O)O [β-GPA, beta-guanidinopropionic acid]",metastatic colonization (bioluminescent measurements of liver metastasis),LvM3b cells,significantly reduced metastatic colonization
same,colon cancer metastasis to the liver,"LvM3b cells; LvM3b cells, daily treatment for three weeks, bioluminescent imaging and gross anatomical examination",significant reduction in colon cancer metastasis to the liver
same,average photon flux ratio (bioluminescence imaging),"LvM3b cells; LvM3b cells, β-GPA intra-peritoneal daily for three weeks, control group about 800",~100
same,average photon flux ratio (bioluminescence imaging),"[2]; 5×10^5 PANC1 cells pre-treated 48 hours with 10 mM, day 1 signal normalized to day zero, control group about 2.7",~1.6
same,tumor burden of pancreatic cancer cells in vivo,"[2]; PANC1 cells pre-treated 48 hours with 10 mM, one day after injection",significant reduction in the tumor burden
